Tests used:
[1] = molecular target: T1, nuclear homogenates of human pancreatic tumor cells (PANC-1) (Homo sapiens, UniProt Q9NZT2); test: Competition for binding of [^3H]-[Met^5]-enkephalin in PANC-1 nuclear homogenates; details: for competition for [^3H][Met^5]-enkephalin binding: 1 or 2 nM radioligand
T1 construct: host or cells: PANC-1; nuclear (P1) homogenates, and P2, P3 and S3 fractions in the fractionation study
T1 sequence (Q9NZT2 1-677): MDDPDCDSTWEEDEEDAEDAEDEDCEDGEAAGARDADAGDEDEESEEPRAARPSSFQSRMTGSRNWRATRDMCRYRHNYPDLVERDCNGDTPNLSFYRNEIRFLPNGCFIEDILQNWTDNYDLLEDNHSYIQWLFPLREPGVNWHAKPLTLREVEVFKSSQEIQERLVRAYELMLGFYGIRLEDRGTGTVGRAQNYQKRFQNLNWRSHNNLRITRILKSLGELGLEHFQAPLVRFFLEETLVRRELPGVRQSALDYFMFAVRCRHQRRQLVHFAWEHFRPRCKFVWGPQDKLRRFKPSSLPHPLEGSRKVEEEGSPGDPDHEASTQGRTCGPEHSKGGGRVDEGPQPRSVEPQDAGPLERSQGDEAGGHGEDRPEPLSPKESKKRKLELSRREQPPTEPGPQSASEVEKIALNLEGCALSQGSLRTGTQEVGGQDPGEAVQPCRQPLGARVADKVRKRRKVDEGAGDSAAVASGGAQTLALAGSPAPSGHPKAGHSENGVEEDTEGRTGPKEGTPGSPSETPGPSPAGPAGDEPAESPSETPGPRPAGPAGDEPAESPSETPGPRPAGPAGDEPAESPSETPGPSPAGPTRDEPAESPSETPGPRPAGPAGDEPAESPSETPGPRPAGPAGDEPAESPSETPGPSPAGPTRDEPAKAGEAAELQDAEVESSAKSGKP
Experimental: Each concentration was run in triplicate and every compound was tested twice.
(§1) Analysis and statistics. Receptor binding data were analyzed with either the Lundon I (Saturation Isotherm Binding Analysis) computer program (Lundon Software, Cleveland, Ohio) or GraphPad Prism software. Both programs utilize nonlinear least-squares regression. Binding isotherms and Scatchard plots were computed directly by the programs. […] Comparisons of Bmax and Kd values were made using analysis of variance and posthoc Newman-Keuls tests.
Competition experiments using 1 or 2 nM [^3H]

[2] = molecular target: T2, PANC-1 nuclear (P1) homogenates (Homo sapiens, UniProt Q9NZT2); test: Binding of [^3H]-[Met^5]-enkephalin to PANC-1 nuclear homogenates (saturation and characterization); details: for Binding, of the optimal binding at 22° C.: 2 nM ligand
T2 construct: host or cells: PANC-1; nuclear (P1) homogenates, and P2, P3 and S3 fractions in the fractionation study
T2 sequence (Q9NZT2 1-677): T1 sequence (Q9NZT2 1-677)
Experimental: (§2) Cell culture. PANC-1, Mia PaCa-2, BxPC-3, and Capan-1 cell lines were obtained from the American Type Culture Collection (Manassas, Va.). […] Panc-1 cells between passages 62–74 were used for the characterization studies.
(§3) Preparation of protein fractions. Cell cultures were harvested by scraping of the flasks, and cells were pelleted by centrifugation. The washed pellet was homogenized (Polytron, setting 5, 2×10 sec) in a 1:20 (wt/vol) solution of cold 50 mM Tris-HCl with 0.1 mg/ml bacitracin, 1 mg/ml leupeptin, 6 nM thiorphan, 1 mM EGTA, and 3.5 mM PMSF (pH 7.4) at 4° C.; this buffer is termed Tris/all.
(§4) Receptor binding assays. Homogenates of nuclear protein were diluted with Tris/all to the appropriate protein concentration and incubated at room temperature (22° C.) for 20 min to remove endogenous peptides. Aliquots of protein were resuspended to 0.95 ml and incubated with agitation with radioactive ligand. […] The final volume of the incubation mixture was 1 ml. Isotope incubation was terminated by rapid filtration through Whatman GF-B filters under vacuum pressure with a Brandel Cell Harvester. Filters were rinsed with ice-cold Tris/all buffer, dried at 60° C. for 1 hr and counted by liquid scintillation spectrometry (Beckman LS-2800). […] Duplicate tubes of homogenates were assayed for each concentration utilized. Protein concentrations were determined by the BioRad method with g-globulin as the standard.
as §1

[3] = molecular target: rat OGFr 12-GST fusion protein (cDNA clone #12); test: Saturation binding of [^3H]-[Met^5]-enkephalin to purified rat OGFr GST fusion protein; details: mean±SE, 6 assays, 22° C., 30 min, read-out: binding affinity (Kd)
Experimental: Fusion proteins (80–120 ng/tube) were incubated for 30 min with shaking at 22° C. […] Binding was terminated by filtering homogenates through Whatman GF/B filters. Saturation isotherms were plotted using GraphPad Prism software (GraphPad Software Inc., San Diego, Calif.).

[4] = molecular target: nuclear-enriched fraction of human placenta; test: Binding of radiolabeled [Met^5]-enkephalin to human placenta; details: one-site model, read-out: binding affinity (Kd)
Text: A one-site model of binding was noted.

[5] = molecular target: PANC-1 subcellular fractions (P1, P2, P3, S3) (Homo sapiens, UniProt Q9NZT2)
Experimental: For subcellular fractionation studies, the supernatant of P1 was centrifuged at 39,000× g for 30 min to obtain a plasma membrane pellet (P2). The P2 supernatant was centrifuged overnight (100,000× g), resulting in a microsomal pellet (P3) and soluble supernatant (S3). All fractions were inspected for purity by phase-contrast microscopy.
as §4
Sucrose gradient centrifugation was performed to separate the nuclear (P1), membrane (P2), microsomal (P3), and soluble (S3) fractions (Table II).

BxPC-3 nuclear fraction = BxPC-3 nuclear fraction (Homo sapiens, UniProt Q9NZT2); details: BxPC-3, log phase
Experimental: as §2, §3, §4

Capan-1 nuclear fraction = Capan-1 nuclear fraction (Homo sapiens, UniProt Q9NZT2); details: Capan-1, log phase
Experimental: as §2, §3, §4

[6] = molecular target: MIA PaCA-2 nuclear fraction (Homo sapiens, UniProt Q9NZT2); details: MIA PaCA-2, log phase
Experimental: as §2, §3, §4

[7] = molecular target: Xenografts of Capan-1 growing in nude mice (Homo sapiens, UniProt Q9NZT2); details: Capan-1 xenograft, harvested 40 days after inoculation
Experimental: as §4

[8] = molecular target: human pancreatic cancer tissue (Homo sapiens, UniProt Q9NZT2)
Experimental: as §4
Receptor binding assays were performed as stated above.

[9] = molecular target: SCCHN enriched nuclear preparations (Homo sapiens, UniProt Q9NZT2)
Text: (§5) Human tissue samples were representative of a variety of squamous cell carcinomas, including specimens from the oral cavity-larynx, and regional metastases. Normal mucosal specimens were obtained during uvu-lopalatopharyngoplasty.

[10] = molecular target: normal mucosa enriched nuclear preparations (Homo sapiens, UniProt Q9NZT2); details: normal epithelium
Text: as §5

normal human pancreas = normal human pancreas (Homo sapiens, UniProt Q9NZT2); details: 3 normal specimens
Experimental: Normal tissues (as determined from histological assessment) were obtained from two females and a person. […] Samples were collected and frozen in liquid nitrogen within 1 hr of surgery. Receptor binding assays were performed as stated above.

[11] = system: IEC-6 rat small intestine epithelial cell line; test: Cell number in IEC-6 cultures (trypan blue, hemacytometer); format: cell-based; details: 10^−6 M, 48 hr of exposure, IEC-6 cells
Experimental: FIG. 6 depicts histogram of cell number in cultures of IEC-6 rat intestinal epithelial cells treated for 48 hr with either sterile water (CO), 10^−6 M NTX, 10^−6 M 23-mer S-ODN (antisense), or scrambled oligoprobe (scrambled). Cells (5×10^3) were plated, and compounds and fresh media were added 24 hr and 48 hr later. After 72 hr in culture, cells were trypsinized, stained with trypan blue, and counted with a hemacytometer.
The IEC-6 rat small intestine epithelial cell line (American Type Tissue Culture Collection, Manassas, Va.) were grown in Dulbecco's medium supplemented with 10% fetal calf serum. For experiments, 5×10^3 cells/well in a 24-well plate were seeded and, 24 hr later, 10^−6 M concentrations of the antisense or the scrambled S-ODN were added. Some wells were exposed to 10^−6 NTX or an equivalent volume of sterile water. Media, S-ODNs, or drugs were changed daily. After 72 hr in culture, cells were trypsinized, stained with trypan blue, and counted with a hemacytometer; 3 wells/treatment group were assessed. The data were evaluated with ANOVA, and subsequent comparisons were made with the Newman-Keuls tests.

[12] = system: SK-N-AS human neuroblastoma cell line; test: Cell number in SK-N-AS cultures (trypan blue, hemacytometer); format: cell-based; details: 10^−6 M, SK-N-AS cells
Experimental: FIG. 10 depicts histogram of cell number in cultures of SK-N-AS human neuroblastoma cells treated for 48 hr with either sterile water (CO), 10^−6 M NTX, 10^−6 M S-ODN, or scrambled oligonucleotide. Cells (6×10^3) were plated and compounds and fresh media added 24 hr and 48 hr later. After 72 hr in culture, cells were trypsinized, stained with trypan blue, and counted with a hemacytometer.
To study the function of the isolated cDNA with respect to regulation of cell growth, a 23-mer antisense S-ODN (nuclease-resistant phosphorothioate; Oligo, Etc., Bethel, Me.) targeted against a sequence containing the translation initiation site of the OGF binding protein was designed: 5′-[…]-3′ (antisense, SEQ ID NO: 17). A scrambled (control) S-ODN was also designed: 5′-[…]-3′ (SEQ ID NO: 18).
The SK-N-AS human neuroblastoma cell line (American Type Tissue Culture Collection, Manassas, Va.) was grown in Dulbecco's medium supplemented with 10% fetal calf serum. For experimentation, 6×10^3 cells/well in a 24-well plate were seeded and, 24 hr later, 10^−6 M concentrations of the antisense or the scrambled S-ODN was added. […] After 72 hr in culture, cells were trypsinized, stained with trypan blue, and counted with a hemacytometer. Data from the antisense experiments were evaluated with ANOVA, and subsequent comparisons made with the Newman-Keuls tests.

[13] = optimal conditions, P1 fraction

Chain of rat OGFr 12-GST fusion protein (cDNA clone #12) (as listed by the source): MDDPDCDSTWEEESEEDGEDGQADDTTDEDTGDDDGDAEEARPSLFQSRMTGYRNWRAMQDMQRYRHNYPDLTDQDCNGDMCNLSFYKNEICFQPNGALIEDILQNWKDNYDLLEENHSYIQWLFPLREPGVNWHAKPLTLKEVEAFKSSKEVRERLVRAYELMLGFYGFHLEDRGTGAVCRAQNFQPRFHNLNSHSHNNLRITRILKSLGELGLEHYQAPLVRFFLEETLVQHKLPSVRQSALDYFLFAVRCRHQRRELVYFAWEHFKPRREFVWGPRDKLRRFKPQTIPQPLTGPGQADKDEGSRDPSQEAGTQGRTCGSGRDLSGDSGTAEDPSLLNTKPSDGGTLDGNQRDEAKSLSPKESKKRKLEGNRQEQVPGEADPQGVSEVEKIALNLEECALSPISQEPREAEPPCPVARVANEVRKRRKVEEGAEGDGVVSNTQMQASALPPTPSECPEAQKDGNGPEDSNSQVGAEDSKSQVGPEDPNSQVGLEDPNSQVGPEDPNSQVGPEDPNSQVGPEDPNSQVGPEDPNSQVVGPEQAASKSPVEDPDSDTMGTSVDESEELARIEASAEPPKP

β-endorphin
IC50/Kd ([1]; competition with [^3H]-[Met^5]-enkephalin, at least 2 independent assays): >10^−4

Nc1nc2c(ncn2[C@@H]2O[C@H](COP(=O)(O)OP(=O)(O)NP(=O)(O)O)[C@@H](O)[C@H]2O)c(=O)[nH]1 [GppNHp, guanylylimidodiphosphate]
effect on binding of [^3H]-[Met^5]-enkephalin ([2]; 50, 100, or 200 μM): not markedly altered

[^3H]-[Met^5]-enkephalin
Kd [3]: 2.8 ± 1.1 nM
Kd [4]: 12.3 ± 3.9 nM
time to reach binding equilibrium ([2]; 22° C.): 60 to 75 min
Bmax ([2]; PANC-1, Table IV, at least 3 independent assays): 28.9 ± 6.2 fmol/mg
Bmax ([2]; PANC-1 Confluent, 5 days in culture): 7.8 ± 0.0 fmol/mg protein
Bmax ([2]; PANC-1 Log phase, 3 days in culture): 20.7 ± 1.2 fmol/mg protein
Bmax ([2]; PANC-1 Post-confluent, 7–8 days in culture): 35.6 ± 0.3 fmol/mg protein
effect of length of time in culture on affinity ([2]; PANC-1 log phase, confluent, post-confluent): no effect
reduction of binding capacity in contrast to post-confluent cells ([2]; confluent cultures): 78%
Binding, of the optimal binding at 22° C. ([2]; incubation at 0° C.): 12%
Binding, of the optimal binding at 22° C. ([2]; incubation at 37° C.): 21%
reduction of binding capacity in contrast to post-confluent cells ([2]; log-phase cultures): 42%
Nonspecific binding, of the total binding [2, 13]: ~52%
maximal binding capacity (Bmax) [2, 13]: 36.4±4.1 fmol/mg protein
Bmax ([5]; P1 fraction, Nuclear): 21.8±4.8 fmol/mg protein
specific and saturable binding ([5]; fractions enriched in P2, P3, or S3): No specific and saturable binding
Bmax (BxPC-3 nuclear fraction): 25.5 ± 9.7 fmol/mg
Bmax (Capan-1 nuclear fraction): 22.7 ± 9.5 fmol/mg
Bmax [6]: 11.9 ± 1.5 fmol/mg
Bmax [7]: 4.2±1.1 fmol/mg protein
binding recorded ([8]; 3 further specimens): non-specific and non-saturable binding
Bmax ([8]; specimens from 3 patients): 6.6±1.2 fmol/mg protein
Binding capacity (Bmax) ([9]; neoplastic specimens): 13.6±1.9 fmol/mg protein
Bmax of neoplastic specimens less than normal epithelium ([9]; p<0.01): 6 fold
Binding capacity (Bmax) [10]: 80.8±32.8 fmol/mg protein
Bmax (normal human pancreas): 46.7±27.8 fmol/mg protein

[Met^5]-enkephalin
ability to displace [^3H][Met^5]enkephalin relative to the next ranking compound [1]: 100 fold

CC[C@]12CCN(CC3CC3)[C@H](C(=O)c3ccc(O)cc31)[C@@H]2C [EKC, ethylketocyclazocine]
competition for [^3H][Met^5]-enkephalin binding [1]: little or no competition

C[C@@H](NC(=O)[C@@H](N)Cc1ccc(O)cc1)C(=O)NCC(=O)N(C)[C@@H](Cc1ccccc1)C(=O)NCCO [DAMGO, [D-Ala^2, N-Me-Phe^4, Gly^5-ol]-enkephalin]
competition for [^3H][Met^5]-enkephalin binding [1]: little or no competition

O=C1CC[C@@]2(O)[C@H]3Cc4ccc(O)c5c4[C@@]2(CCN3CC2CC2)[C@H]1O5 [NTX, naltrexone]
elevation of cell number from control cultures [11]: 223%
growth relative to control cultures ([12]; 48 hr): increased cell growth from control values

5′-GACTCAGGGACTTAGCTTCATCC-3′ (DNA, all phosphorothioate, methylation of C not given here) [antisense S-ODN (SEQ ID NO: 15)]
elevation of cell number from control cultures [11]: 294%

DPDPE [[D-Pen^2, Pen^5]-enkephalin]
competition for [^3H][Met^5]-enkephalin binding [1]: little or no competition

Dynorphin A1-8 (YGGFLRRI) [κ receptor ligand]
competition for [^3H][Met^5]-enkephalin binding [1]: little or no competition

5′-GGTCGTCCATGCTCGGCTAGAAT-3′ (DNA, all phosphorothioate, methylation of C not given here) [antisense S-ODN (SEQ ID NO: 17)]
elevation of cell number from control cultures ([12]; 48 hr of exposure): 60%

— patent publication US7122651B1, “Nucleic acid molecules encoding opioid growth factor receptors” (priority 1998, dated 2006)
